# From patent US12037324B2, “Biarylmethyl heterocycles” (Université de Montréal, priority 2016, dated 2024)
# pEC50: −log10 of the molar value.
# Experiments:
# Type in all cases: cell-based
# hAT1R [1] = molecular target: T1, hAT1R (Homo sapiens, UniProt P30556); assay: BRET Gq biosensor assay, agonist response, HEK293 cells; details: section of the 42nd table directly before the BRET P63 section
# T1 sequence (P30556 1-359): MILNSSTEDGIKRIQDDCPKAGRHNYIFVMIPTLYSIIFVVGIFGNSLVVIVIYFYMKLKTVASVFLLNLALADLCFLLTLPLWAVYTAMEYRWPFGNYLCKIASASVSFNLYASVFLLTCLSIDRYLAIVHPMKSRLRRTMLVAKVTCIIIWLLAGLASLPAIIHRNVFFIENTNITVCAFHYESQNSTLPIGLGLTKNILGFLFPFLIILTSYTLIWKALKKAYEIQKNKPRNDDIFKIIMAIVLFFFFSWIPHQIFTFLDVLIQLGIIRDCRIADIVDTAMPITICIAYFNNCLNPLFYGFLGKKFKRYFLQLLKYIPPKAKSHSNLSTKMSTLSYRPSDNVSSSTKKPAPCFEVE
# Method: BRET β-arrestin2 and Gq Activation Assays
# In another aspect of the invention, association of the ATIR with signaling proteins is assessed using bioluminescence resonance energy transfer assays (Stephane Angers, Ali Salahpour et al. 2002). This technology measures the association between bioluminescent and fluorescent protein tags.
# Several of the plasmid constructs used in BRET experiments were previously described. Briefly, the coding sequence of β-arrestin2 was fused to Renilla luciferase II to generate β-arrestin2-Rluc (Quoyer, Janz et al. 2013). The membrane targeting motif from K-Ras, CAAX motif (GKKKKKKSKTKCVIM), was fused to Renilla GFP to create rGFP-CAAX plasmid (Namkung Y et al., Nat Commun (2016) 7, 12178). The Renilla luciferase II was inserted in the Gaq protein to generate Gaq-Rluc (Breton, Sauvageau et al. 2010). The Gγ1 protein was tagged with GFP10 to obtain GFP-Gyl, using the same strategy described previously for GFP-Gy2 (Gales, Rebois et al. 2005). The Gaq binding domain of the p63RhoGEF protein (amino acids 295-502) was fused to Renilla luciferase II to create P63-Rluc. Finally, the hAT1R plasmid construct encoding the receptor was generated by optimizing the coding sequence of human angiotensin II receptor (GeneOptimizer from ThermoFisher), and adding an artificial cleavable signal peptide from bovine prolactin ([…]) in N-terminus of the receptor to increase cell surface expression.
# Gq Biosensor Assay HEK293 cells were cultured in DMEM supplemented with Penicillin-Streptomycin and 10% fetal bovine serum. Two days before the BRET experiment, HEK293 cells were transfected with hAT1R expression plasmid (200 ng/well) as well as Gaq-Rluc (100 ng/well), Gβ1 (375 ng/well) and GFP-Gγ1 (625 ng/well), using linear polyethylenimine 25 kDa (PEI) at a PEI:DNA ratio of 3:1. Transfected cells were directly seeded in 96-well plates, at a density of 35 000 cells per well, and maintained in culture for the next 48 h.
# BRET experiments were carried out subsequently using the following procedures: cells were washed once with Tyrode's buffer (137 mM NaCl, 1 mM CaCl2, 0.9 mM KCl, […], 3.6 mM NaH2PO4, 5.5 mM glucose, 12 mM NaHCO3, and 25 mM HEPES, pH 7.4) and 90 μl of Tyrode's buffer was added to each well. Cells were equilibrated in their new buffer at room temperature for at least 30 minutes. Following the equilibration period, the coelenterazine substrate was first added to the cells, 10 μl per well of a 10×solution (prolume purple coelenterazine at a final concentration of 2 μM), immediately followed by compound addition using the HP D300 digital dispenser from Tecan (10 singlicate concentrations). Cells were incubated for 5 min at room temperature and BRET readings were then collected using a Synergy Neo Multi-Mode reader from BioTek with BRET2 filters 410/515, to record agonist response. […] A second reading was collected 5 min after this second addition, using the Synergy Neo Multi-Mode reader from BioTek with BRET2 filters 410/515, to record antagonist response. The BRET signal was determined by calculating the ratio of the light emitted by GFP (515 nm) over the light emitted by the Rluc (410 nm). To analyze agonist response, BRET signal values were converted into percentage of activation using the non-stimulated control as 0% and AngII maximal response as 100%. Sigmoidal concentration-response curves were generated with those normalized values using a 4-parameter logistic equation (IDBS ActivityBase software), to determine EC50 of the different compounds. In the case of antagonist response analysis, BRET signal values were converted into percentage of inhibition using the fixed dose of AngII (corresponding to the EC50) as 0% and non-stimulated control as 100%. Sigmoidal concentration-response curves were generated with those normalized values using a 4-parameter logistic equation (IDBS ActivityBase software), to determine IC50 of the different compounds.
# AGTR1 = molecular target: T2, AGTR1 (Homo sapiens, UniProt P30556); assay: DiscoveRx β-arrestin2 recruitment assay (enzyme complementation, Pathunter CHO-K1 AGTR1 β-arrestin cell line); details: DiscoveRx β-arrestin2 recruitment; for DiscoveRx β-arrestin2 Ymax (%): maximal response
# T2 construct: host or cells: Pathunter CHO-K1 AGTR1 β-arrestin cell line (CHO-K1)
# T2 sequence (P30556 1-359): T1 sequence (P30556 1-359)
# Summary of the method: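 CHO-K1 cells expressing AGTR1 with β-arrestin2 enzyme-complementation reporter, plated 14-16 h ahead in 1% serum medium, then exposed to compounds for 90 min at 37° C. Chemiluminescence read after 1 h detection. EC50 (agonist) or IC50 (antagonist) from 4-parameter logistic fit; activity as percentage of All maximal effect.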
# hAT1R [2] = molecular target: T1, hAT1R; assay: BRET β-arrestin2 biosensor assay, higher receptor expression (hAT1R 5 ng/well), HEK293 cells; details: for pEC50: High AT1R Expression
SMILES,pEC50 (hAT1R [1]),pEC50 (AGTR1),DiscoveRx β-arrestin2 Ymax (%) (AGTR1),BRET β-Arrestin2 High AT1R Expression Ymax (%) (hAT1R [2]),pEC50 (hAT1R [2])
"CCCCC(=O)N(Cc1ccc(-c2cc(-c3ccccc3)ccc2-c2nn[nH]n2)cc1)C(C)(C)C(=O)O [Example 268, 2-(N-((6′-(2H-Tetrazol-5-yl)-[1,1′:3′,1″-terphenyl]-4-yl)methyl)pentanamido)-2-methylpropanoic acid]",5.96,6.20,39.8%,73.8%,5.99
CCCCC(=O)N(Cc1ccc(-c2cc(-c3ccccc3)ccc2-c2nn[nH]n2)cc1)C1(C(=O)O)CC1 [Example 269],< 4.00,5.18,14.2%,58.7%,4.51
CCCCC(=O)N(Cc1ccc(-c2cc(-c3ccccc3)ccc2-c2nn[nH]n2)cc1)C1(C(=O)O)CCC1 [Example 270],5.33,5.18,28.6%,74.3%,4.89
CCCCC(=O)N(Cc1ccc(-c2cc(-c3ccccc3)ccc2-c2nn[nH]n2)cc1)C1(C(=O)O)CCCC1 [Example 271],6.23,6.42,45.5%,80.3%,6.25
CCCCC(=O)N(Cc1ccc(-c2cc(-c3ccccc3)ccc2-c2nn[nH]n2)cc1)C1(C(=O)O)CCCCC1 [Example 272],< 4.00,7.78,43.5%,84.0%,7.82
CCCCC(=O)N(Cc1ccc(-c2cc(-c3ccccc3)ccc2-c2nn[nH]n2)nc1)C1(C(=O)O)CCCCC1 [Example 273],6.81,7.67,39.3%,88.1%,7.63
CCCCC(=O)N(Cc1ccc(-c2cc(-c3ccccc3)ccc2-c2nn[nH]n2)cn1)C1(C(=O)O)CCCCC1 [Example 274],5.83,6.60,37.5%,82.5%,6.55
"CCCCC(=O)N(Cc1ccc(-c2cc(-c3ccccc3)ccc2-c2nn[nH]n2)cc1)C1(C(=O)O)CCC(C)(C)CC1 [Example 275, 1-(N-((6′-(2H-Tetrazol-5-yl)-[1,1′:3′,1″-terphenyl]-4-yl)methyl)pentan-amido)-4,4-dimethylcyclohexanecarboxylic acid]",< 4.00,7.58,50.9%,71.5%,7.67
CCCCC(=O)N(Cc1ccc(-c2cc(-c3ccccc3)ccc2-c2nn[nH]n2)cc1)C1(C(=O)O)CCOCC1 [Example 276],6.40,7.30,50.9%,73.6%,7.11
CCCCC(=O)N(Cc1ccc(-c2cc(-c3ccccc3)ccc2-c2nn[nH]n2)cc1)C1(C(=O)O)CCCCCC1 [Example 277],< 4.00,7.44,46.0%,79.4%,7.54
CCCCC(=O)N(Cc1ccc(-c2cc(-c3ccccc3)ccc2-c2nn[nH]n2)cc1)[C@]1(C(=O)O)CC[C@@H](C)CC1 [Example 278],5.92,7.35,51.9%,87.2%,7.89
"CCOc1nc2cccc(C(=O)O)c2n1Cc1ccc(-c2cc(-c3cnc(OC)c(C)c3)ccc2-c2nn[nH]n2)cc1 [Example 328, 2-ethoxy-1-((5′-(6-methoxy-5-methylpyridin-3-yl)-2′-(2H-tetrazol-5-yl)-[1,1′-biphenyl]-4-yl)methyl)-1H-benzo[d]imidazole-7-carboxylic acid]",5.58,6.10,51.8%,,
"CCCCc1nc(Cl)c(C(=O)O)n1Cc1ccc(-c2cc(N3CCC[C@H](C)C3)ccc2-c2noc(=O)[nH]2)cc1 [Example 407, (S)-2-butyl-4-chloro-1-((5′-(3-methylpiperidin-1-yl)-2′-(5-oxo-4,5-dihydro-1,2,4-oxadiazol-3-yl)-[1,1′-biphenyl]-4-yl)methyl)-1H-imidazole-5-carboxylic acid]",4.78,6.76,24.6%,,
CCCCc1nc(Cl)c(C(=O)O)n1Cc1ccc(-c2cc(-n3ccc4ccccc43)ccc2-c2noc(=O)[nH]2)cc1 [Example 408],< 4.00,7.63,32.5%,,
CCCCc1nc(Cl)c(C(=O)OCc2oc(=O)oc2C)n1Cc1ccc(-c2cc(-c3ccccc3)ccc2-c2nn[nH]n2)cc1 [Example 411],7.77,7.51,56.4%,,
"CCCc1nc(CC)c(C(=O)OCc2oc(=O)oc2C)n1Cc1ccc(-c2cc(-c3ccccc3)ccc2-c2nn[nH]n2)cc1 [Example 412, (5-methyl-2-oxo-1,3-dioxol-4-yl)methyl 1-((6′-(2H-tetrazol-5-yl)-[1,1′:3′,1′″-terphenyl]-4-yl)methyl)-4-ethyl-2-propyl-1H-imidazole-5-carboxylate]",7.20,7.93,64.1%,,
CCCCc1nc(Cl)c(C(=O)O)n1Cc1ccc(-c2cc(-n3ccc4ccccc43)ccc2-c2nn[nH]n2)cc1 [Example 417],< 4.00,8.23,39.6%,,
CCCCc1nc(Cl)c(C(=O)O)n1Cc1ccc(-c2cc(-c3cc(C)ccn3)ccc2-c2nn[nH]n2)cc1 [Example 420],7.10,8.19,73.6%,,
CCCCc1nc(Cl)c(C(=O)O)n1Cc1ccc(-c2cc(-c3cc(OC)ccn3)ccc2-c2nn[nH]n2)cc1 [Example 421],7.03,8.03,38.5%,,
"CCCCc1nc(Cl)c(C(=O)O)n1Cc1ccc(-c2cc(-c3cc(N(C)C)ccn3)ccc2-c2nn[nH]n2)cc1 [Example 422, 2-butyl-4-chloro-1-((5′-(4-(dimethylamino)pyridin-2-yl)-2′-(2H-tetrazol-5-yl)-[1,1′-biphenyl]-4-yl)methyl)-1H-imidazole-5-carboxylic acid]",6.68,7.16,26.7%,,
